Results taken from patent publication US20240374626A1, “METHODS OF ENHANCING MILK PRODUCTION IN LACTATING MAMMALIAN SUBJECTS” (priority 2023, published 2024).

System: MG alveoli
Test: Contralateral intraductal injection: milk staining (IHC) integrated density per alveolus
Type: in vivo, mouse
Settings: Mk-1775 IDI at PD16.5 vs contralateral DMSO, LD5 MGs
Method: Nulliparous analysis was performed using adult (10-12-week-old) female mice. For timed pregnancies and lactation analysis, CD-1 pregnant adult females were obtained from Charles Rivers. Embryos were examined at the time of mammary gland harvesting to confirm pregnancy state. […] Plugged mice were considered to be PD0.5 on the day of the observed plug. All females used in this study were age matched.
Mice were anesthetized with isoflurane (VetOne, 501017) Prior to intraductal injections, hair was removed from around the nipples using Nair hair remover. Injections into the duct of the nipple were performed with 33 G needles (Hamilton, 7803-05) and a volume of 40 μl per gland. […]
Mammary gland tissue was fixed in 10% neutral buffered formalin (EMD Millipore, MR0458682) at 4° C. overnight. […] Incubation with secondary antibodies [(donkey anti-Rat 647 (Thermo-Invitrogen; A48272) and donkey anti-Rabbit 488 (Thermo-Invitrogen; A32790)] was performed for 2 h at room temperature. Sections were washed with 0.3% triton in PBS for 30 min (×3) at room temperature and mounted using flouromount-G (Southern Biotech, 0100-01). Image acquisition was performed using Zeiss Axio Imager Microscope. Macros were generated to quantify lumen milk integrated density per alveolus using Image J.

Structure (SMILES): C=CCn1c(=O)c2cnc(Nc3ccc(N4CCN(C)CC4)cc3)nc2n1-c1cccc(C(C)(C)O)n1 [Mk-1775]
- decrease in milk production (IHC, milk integrated density per alveolus): 21%
